In assay [1] the target is T1, pancreatic lipase (Homo sapiens, UniProt P16233).
T1 sequence (P16233 17-465): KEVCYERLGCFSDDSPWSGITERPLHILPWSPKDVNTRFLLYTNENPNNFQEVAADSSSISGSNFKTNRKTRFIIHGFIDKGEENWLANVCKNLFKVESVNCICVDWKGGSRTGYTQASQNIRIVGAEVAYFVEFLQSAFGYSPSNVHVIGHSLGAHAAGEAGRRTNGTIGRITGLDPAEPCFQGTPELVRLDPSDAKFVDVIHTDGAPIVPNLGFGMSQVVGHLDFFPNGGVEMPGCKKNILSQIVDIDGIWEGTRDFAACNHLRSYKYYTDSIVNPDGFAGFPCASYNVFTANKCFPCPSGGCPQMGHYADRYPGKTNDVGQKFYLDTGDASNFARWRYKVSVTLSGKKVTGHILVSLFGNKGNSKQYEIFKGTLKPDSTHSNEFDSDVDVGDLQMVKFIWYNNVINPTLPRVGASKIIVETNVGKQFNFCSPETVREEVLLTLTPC
The assay is described as follows: in vitro effect on the activity of pancreatic lipase. It is filed as biochemical. The settings on record: concentration of 10 mg, after 45 and 60 minutes, 37° C. The source says: The composition of the formulation of the invention is presented below in the Table 1: […]

In assay [2] the test system is lipase. The settings on record: human, three capsules of 120 mg daily; cited from earlier work.

For `CCCCCCCCCCC[C@@H](C[C@@H]1OC(=O)[C@H]1CCCCCC)OC(=O)[C@H](CC(C)C)NC=O` (relative stereo) [Xenical®, ([2S-[2a(R*),3b]]N-formyl-L-leucine 1-[(3-hexyl-4-oxo-2-oxetanyl)methyl]dodecyl ester)], the “inhibition of lipase activity” value in assay [1] is “complete inhibition”. In assay [2], the “consumed fat that goes through the digestive tract without decomposition and is not absorbed” value is 30%.
